# Laboratory results reported in ChEMBL document CHEMBL3286359, “Synthesis and SAR of substituted pyrazolo[1,5-a]quinazolines as dual mGlu(2)/mGlu(3) NAMs” (Bioorg Med Chem Lett, 2014).
# Calls of active or inactive are those of the source. No cut-off for these calls is given here.
# How the values were obtained:
# [1] = biological target: Metabotropic glutamate receptor 3 (Rattus norvegicus) (UniProt P31422); experiment: Inhibition of rat mGlu3 receptor transfected in HEK293 cells coexpressing mouse Galpha15 assessed as decrease in glutamate-induced calcium signaling at 3 uM by fluorescence plate reader analysis in presence of glutamate at EC87 concentration; format: functional, cell-based
# [2] = biological target: Metabotropic glutamate receptor 3 (Rattus norvegicus) (UniProt P31422); experiment: Positive allosteric modulatory activity at rat mGlu3 receptor transfected in HEK293 cells co-expressing mouse Galpha15 assessed as potentiation of glutamate-dependent calcium signaling at 3 uM by fluorescence plate reader analysis in presence of glutamate at EC20 concentration; format: functional, cell-based
# [3] = biological target: Metabotropic glutamate receptor 3 (Rattus norvegicus) (UniProt P31422); experiment: Inhibition of rat mGlu3 receptor transfected in HEK293 cells coexpressing mouse Galpha15 assessed as decrease in glutamate-induced calcium signaling at 1 uM by fluorescence plate reader analysis in presence of glutamate at EC87 concentration; format: functional, cell-based
# [4] = biological target: Metabotropic glutamate receptor 2 (Rattus norvegicus) (UniProt P31421); experiment: Inhibition of rat mGlu2 receptor transfected in HEK293 cells coexpressing mouse Galpha15 assessed as decrease in glutamate-induced calcium signaling at 3 uM by fluorescence plate reader analysis in presence of glutamate at EC76 concentration; format: functional, cell-based
# [5] = biological target: Metabotropic glutamate receptor 2 (Rattus norvegicus) (UniProt P31421); experiment: Inhibition of rat mGlu2 receptor transfected in HEK293 cells coexpressing mouse Galpha15 assessed as decrease in glutamate-induced calcium signaling at 1 uM by fluorescence plate reader analysis in presence of glutamate at EC76 concentration; format: functional, cell-based
# [6] = biological target: Metabotropic glutamate receptor 2 (Rattus norvegicus) (UniProt P31421); experiment: Positive allosteric modulatory activity at rat mGlu2 receptor transfected in HEK293 cells co-expressing mouse Galpha15 assessed as potentiation of glutamate-dependent calcium signaling at 3 uM by fluorescence plate reader analysis in presence of glutamate at EC20 concentration; format: functional, cell-based
# [7] = biological target: Metabotropic glutamate receptor 7 (Rattus norvegicus) (UniProt P35400); experiment: Activity at rat mGlu7 receptor assessed as glutamate-induced GIRK response at 10 uM
# Plasma [8] = experiment: Fraction unbound in human plasma; format: ADME, cell-free
# [9] = biological target: Metabotropic glutamate receptor 3 (Rattus norvegicus) (UniProt P31422); details: 10 uM
# Description: Inhibition of rat mGlu3 receptor assessed as decrease in glutamate-induced calcium signaling at 10 uM by fluorescence plate reader analysis
# [10] = biological target: Metabotropic glutamate receptor 5 (Rattus norvegicus) (UniProt P31424); experiment: Activity at rat mGlu5 receptor assessed as glutamate-induced calcium signaling at 10 uM by fluorescence plate reader analysis; format: functional
# [11] = biological target: Metabotropic glutamate receptor 6 (Homo sapiens) (UniProt O15303); experiment: Activity at human mGlu6 receptor assessed as glutamate-induced GIRK response at 10 uM
# [12] = biological target: Metabotropic glutamate receptor 4 (Rattus norvegicus) (UniProt P31423); experiment: Activity at rat mGlu4 receptor assessed as glutamate-induced GIRK response at 10 uM
# [13] = biological target: Metabotropic glutamate receptor 8 (Rattus norvegicus) (UniProt P70579); experiment: Activity at rat mGlu8 receptor assessed as glutamate-induced GIRK response at 10 uM
# Plasma [14] = experiment: Fraction unbound in rat plasma; format: ADME, cell-free
# [15] = biological target: Metabotropic glutamate receptor 2 (Rattus norvegicus) (UniProt P31421); experiment: Inhibition of rat mGlu2 receptor assessed as decrease in glutamate-induced calcium signaling at 10 uM by fluorescence plate reader analysis; format: functional
# [16] = biological target: Metabotropic glutamate receptor 2 (Rattus norvegicus) (UniProt P31421); experiment: Negative allosteric modulatory activity at rat mGlu2 receptor transfected in HEK293 cells coexpressing mouse Galpha15 assessed as decrease in glutamate-induced calcium signaling by fluorescence plate reader analysis in presence of glutamate at EC76 concentration; format: functional, cell-based
# [17] = biological target: Metabotropic glutamate receptor 2 (Rattus norvegicus, UniProt P31421); experiment: Inhibition of rat mGlu2 receptor transfected in HEK293 cells coexpressing mouse Galpha15 assessed as decrease in glutamate-induced calcium signaling by fluorescence plate reader analysis in presence of glutamate at EC76 concentration; format: functional, cell-based
# [18] = biological target: Metabotropic glutamate receptor 3 (Rattus norvegicus, UniProt P31422); experiment: Inhibition of rat mGlu3 receptor transfected in HEK293 cells coexpressing mouse Galpha15 assessed as decrease in glutamate-induced calcium signaling by fluorescence plate reader analysis in presence of glutamate at EC87 concentration; format: functional, cell-based
# Metabotropic glutamate receptor 3, sequence (P31422 whole entry): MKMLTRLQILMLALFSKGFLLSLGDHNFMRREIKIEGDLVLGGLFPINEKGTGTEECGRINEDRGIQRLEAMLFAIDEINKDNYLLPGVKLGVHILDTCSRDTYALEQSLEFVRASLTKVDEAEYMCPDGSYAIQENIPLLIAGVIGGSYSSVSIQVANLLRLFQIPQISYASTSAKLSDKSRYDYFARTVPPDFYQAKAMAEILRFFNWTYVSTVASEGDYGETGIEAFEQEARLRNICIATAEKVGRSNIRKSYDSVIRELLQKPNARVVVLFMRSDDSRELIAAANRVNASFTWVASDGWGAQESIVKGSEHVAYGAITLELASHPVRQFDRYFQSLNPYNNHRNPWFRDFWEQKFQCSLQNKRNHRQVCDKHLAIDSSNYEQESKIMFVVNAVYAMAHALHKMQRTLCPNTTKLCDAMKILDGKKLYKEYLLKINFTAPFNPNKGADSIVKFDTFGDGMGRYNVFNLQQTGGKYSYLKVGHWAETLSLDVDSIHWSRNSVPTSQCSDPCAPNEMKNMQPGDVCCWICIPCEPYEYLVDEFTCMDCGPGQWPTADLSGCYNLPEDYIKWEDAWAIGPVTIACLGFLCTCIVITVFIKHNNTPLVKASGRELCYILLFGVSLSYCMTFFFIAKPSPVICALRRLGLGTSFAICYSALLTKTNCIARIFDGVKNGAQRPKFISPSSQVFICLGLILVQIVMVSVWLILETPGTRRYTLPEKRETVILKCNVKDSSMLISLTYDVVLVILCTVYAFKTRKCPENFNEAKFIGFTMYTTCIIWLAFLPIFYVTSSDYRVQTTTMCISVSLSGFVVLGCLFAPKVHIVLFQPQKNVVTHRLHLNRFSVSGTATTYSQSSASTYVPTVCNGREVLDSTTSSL
# Metabotropic glutamate receptor 3 (Rattus norvegicus), sequence (P31422 23-879 limits assumed): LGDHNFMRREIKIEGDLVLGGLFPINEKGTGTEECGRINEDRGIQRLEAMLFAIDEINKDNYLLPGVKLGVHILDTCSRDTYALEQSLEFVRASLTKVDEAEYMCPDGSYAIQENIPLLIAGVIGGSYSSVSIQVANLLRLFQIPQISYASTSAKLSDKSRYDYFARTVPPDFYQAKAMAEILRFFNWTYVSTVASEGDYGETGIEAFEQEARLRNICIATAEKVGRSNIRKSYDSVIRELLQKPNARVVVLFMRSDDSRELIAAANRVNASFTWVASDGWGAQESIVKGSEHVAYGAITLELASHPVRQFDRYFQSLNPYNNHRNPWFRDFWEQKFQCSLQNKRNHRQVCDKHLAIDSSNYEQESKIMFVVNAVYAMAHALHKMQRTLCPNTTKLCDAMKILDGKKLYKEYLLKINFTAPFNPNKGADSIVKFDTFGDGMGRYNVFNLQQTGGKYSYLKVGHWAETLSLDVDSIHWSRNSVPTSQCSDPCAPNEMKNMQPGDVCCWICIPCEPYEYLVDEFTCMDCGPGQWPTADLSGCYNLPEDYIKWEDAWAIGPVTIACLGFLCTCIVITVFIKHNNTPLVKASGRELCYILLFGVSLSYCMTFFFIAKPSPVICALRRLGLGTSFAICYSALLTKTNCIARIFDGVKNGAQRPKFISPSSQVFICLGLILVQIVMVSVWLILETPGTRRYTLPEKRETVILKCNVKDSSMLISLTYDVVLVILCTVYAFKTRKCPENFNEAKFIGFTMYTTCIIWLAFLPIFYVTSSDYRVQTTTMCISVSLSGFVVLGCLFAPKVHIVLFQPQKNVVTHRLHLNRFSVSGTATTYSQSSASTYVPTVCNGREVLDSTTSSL
# Metabotropic glutamate receptor 2 (Rattus norvegicus), sequence (P31421 19-872 limits assumed): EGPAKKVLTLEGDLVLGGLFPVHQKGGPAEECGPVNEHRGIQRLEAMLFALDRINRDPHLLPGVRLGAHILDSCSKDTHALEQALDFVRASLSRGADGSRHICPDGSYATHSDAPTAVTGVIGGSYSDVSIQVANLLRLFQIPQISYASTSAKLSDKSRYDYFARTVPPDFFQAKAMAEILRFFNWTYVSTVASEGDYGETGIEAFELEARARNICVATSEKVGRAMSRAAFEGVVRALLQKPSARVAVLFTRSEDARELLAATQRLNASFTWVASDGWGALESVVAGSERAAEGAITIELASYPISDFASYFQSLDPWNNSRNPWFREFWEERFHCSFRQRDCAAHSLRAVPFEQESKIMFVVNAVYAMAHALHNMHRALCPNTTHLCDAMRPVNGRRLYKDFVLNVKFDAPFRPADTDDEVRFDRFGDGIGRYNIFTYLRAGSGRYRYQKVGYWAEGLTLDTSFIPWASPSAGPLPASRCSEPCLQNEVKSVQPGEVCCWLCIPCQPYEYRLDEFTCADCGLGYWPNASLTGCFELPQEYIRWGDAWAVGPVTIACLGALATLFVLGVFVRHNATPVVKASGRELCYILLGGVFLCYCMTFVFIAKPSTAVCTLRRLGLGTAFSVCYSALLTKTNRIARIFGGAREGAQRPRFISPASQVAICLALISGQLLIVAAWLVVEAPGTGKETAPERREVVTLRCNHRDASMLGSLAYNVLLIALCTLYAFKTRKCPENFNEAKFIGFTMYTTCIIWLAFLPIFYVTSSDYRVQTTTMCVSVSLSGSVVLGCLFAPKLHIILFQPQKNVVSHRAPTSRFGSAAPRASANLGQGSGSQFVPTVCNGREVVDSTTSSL
# Metabotropic glutamate receptor 2, sequence (P31421 whole entry): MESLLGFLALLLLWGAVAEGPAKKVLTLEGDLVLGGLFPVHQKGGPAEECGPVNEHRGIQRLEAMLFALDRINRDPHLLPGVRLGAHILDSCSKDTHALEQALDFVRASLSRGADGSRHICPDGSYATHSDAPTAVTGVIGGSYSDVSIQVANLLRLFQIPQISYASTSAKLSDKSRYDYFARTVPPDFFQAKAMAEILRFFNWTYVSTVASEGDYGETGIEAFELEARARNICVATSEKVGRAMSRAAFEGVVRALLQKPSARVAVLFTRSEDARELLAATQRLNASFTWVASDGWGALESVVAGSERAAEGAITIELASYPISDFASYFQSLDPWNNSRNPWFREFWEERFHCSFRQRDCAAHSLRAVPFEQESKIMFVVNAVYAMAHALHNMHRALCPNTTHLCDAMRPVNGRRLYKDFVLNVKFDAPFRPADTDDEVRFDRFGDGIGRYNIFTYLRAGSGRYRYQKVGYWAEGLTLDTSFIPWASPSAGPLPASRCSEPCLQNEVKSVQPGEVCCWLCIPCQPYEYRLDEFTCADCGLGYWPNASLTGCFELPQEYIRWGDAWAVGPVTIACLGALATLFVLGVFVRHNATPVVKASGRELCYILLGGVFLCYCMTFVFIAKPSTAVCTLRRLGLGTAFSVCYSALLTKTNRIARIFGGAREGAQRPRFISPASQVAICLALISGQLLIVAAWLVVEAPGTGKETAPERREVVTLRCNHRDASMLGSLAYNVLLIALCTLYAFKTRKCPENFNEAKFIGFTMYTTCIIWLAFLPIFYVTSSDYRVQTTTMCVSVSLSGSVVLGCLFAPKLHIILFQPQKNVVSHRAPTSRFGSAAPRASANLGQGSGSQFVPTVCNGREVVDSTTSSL
# Metabotropic glutamate receptor 8 (Rattus norvegicus), sequence (P70579 whole entry): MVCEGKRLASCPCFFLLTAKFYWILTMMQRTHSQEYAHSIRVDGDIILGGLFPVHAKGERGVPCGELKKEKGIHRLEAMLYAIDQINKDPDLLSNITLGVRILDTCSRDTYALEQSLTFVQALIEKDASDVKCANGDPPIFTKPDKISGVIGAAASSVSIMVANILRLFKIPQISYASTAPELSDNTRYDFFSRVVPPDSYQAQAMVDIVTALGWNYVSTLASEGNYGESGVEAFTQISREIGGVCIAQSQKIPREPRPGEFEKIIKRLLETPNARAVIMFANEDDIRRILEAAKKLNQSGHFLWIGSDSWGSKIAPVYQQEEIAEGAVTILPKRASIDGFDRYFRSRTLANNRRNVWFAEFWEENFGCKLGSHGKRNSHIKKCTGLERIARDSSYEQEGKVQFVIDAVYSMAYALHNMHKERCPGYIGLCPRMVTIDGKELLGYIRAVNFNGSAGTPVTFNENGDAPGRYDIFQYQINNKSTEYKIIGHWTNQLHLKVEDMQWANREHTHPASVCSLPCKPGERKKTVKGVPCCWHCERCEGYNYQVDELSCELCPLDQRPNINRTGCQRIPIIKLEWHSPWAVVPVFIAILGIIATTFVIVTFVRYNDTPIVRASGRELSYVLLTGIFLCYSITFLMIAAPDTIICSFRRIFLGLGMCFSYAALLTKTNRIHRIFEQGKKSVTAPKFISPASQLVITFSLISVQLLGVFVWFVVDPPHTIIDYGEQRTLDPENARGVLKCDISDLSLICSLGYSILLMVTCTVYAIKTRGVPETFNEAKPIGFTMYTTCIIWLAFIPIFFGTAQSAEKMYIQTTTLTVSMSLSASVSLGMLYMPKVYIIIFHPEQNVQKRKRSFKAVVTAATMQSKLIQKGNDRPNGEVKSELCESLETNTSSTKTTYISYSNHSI
SMILES,inhibition [1] [%],Activity [2],inhibition [3] [%],inhibition [4] [%],inhibition [5] [%],Activity [6],Activity [7],Fu (Plasma [8]),inhibition [9],Activity [10],Activity [11],Activity [12],Activity [13],Fu (Plasma [14]),inhibition [15],Activity [16],IC50 [17] [nM],IC50 [18] [nM]
COc1ccc(-c2ccc3c(=O)n(C)c4cc(-c5ccc(Cl)cc5)nn4c3c2)cc1,21,inactive,60,6,60,inactive,,,,,,,,,,,,
Cn1c(=O)c2ccc(-c3cncnc3)cc2n2nc(-c3ccccc3)cc12,,,,,,,inactive,0.008,Active,inactive,inactive,inactive,inactive,0.003,Active,Dose-dependent effect,245,78
Cc1ccc2c(=O)n(C)c3cc(-c4ccc(Cl)cc4)nn3c2c1,33,inactive,60,11,60,inactive,,,,,,,,,,,,

# Second part, the compound after the results:
inhibition [1] [%],Activity [2],inhibition [3] [%],inhibition [4] [%],inhibition [5] [%],Activity [6],Activity [7],Fu (Plasma [8]),inhibition [9],Activity [10],Activity [11],Activity [12],Activity [13],Fu (Plasma [14]),inhibition [15],Activity [16],IC50 [17] [nM],IC50 [18] [nM],SMILES
31,inactive,60,4,60,inactive,,,,,,,,,,,,,Cn1c(=O)c2ccc(-c3ccccc3)cc2n2nc(-c3ccc(Cl)cc3)cc12
,inactive,60,,60,inactive,,,,,,,,,,,1110,645,Cn1c(=O)c2ccc(-c3cccnc3)cc2n2nc(-c3ccc(Cl)cc3)cc12
,inactive,60,,60,inactive,,,,,,,,,,,847,1250,Cn1c(=O)c2ccc(-c3cccc(S(N)(=O)=O)c3)cc2n2nc(-c3ccc(Cl)cc3)cc12
